Laboratory results as given in patent US20100254928A1, “NOVEL COMPOSITION CONTAINING OZONIZED SURFACTANT” (priority 2007, published 2010).

Tests used:
[1] = Temporal change in oxidizing property (iodine titration method); assay type: physicochemical; details: 1% aqueous solution, 25° C., 700 days
Description: After deaerating the obtained aqueous ozonized surfactant solution to remove dissolved ozone gas by helium purging, the oxidizing property of the aqueous ozonized surfactant solution can be determined by the iodine titration method (see Non Patent Literature 1). Whether or not the aqueous ozonized surfactant solution maintains a function as a surfactant can be evaluated by checking whether or not frothing, which is a characteristic of surfactants, occurs when the solution is agitated or vibrated.
Meanwhile, oxygen was supplied from an oxygen cylinder into an ozonizer (ozonizer GR-RB made by Sumitomo Precision Products Co., Ltd.) at an oxygen flow rate of 0.3 L/min to ozonize the oxygen to produce ozone gas. Then, the ozone gas was dissolved in the above-described aqueous solution in a dissolving module (SEK model made by ERC Technology), and the aqueous solution was circulated at a flow rate of 1 L/min. […] Further, in 30 minutes, the concentration increased to 25 ppm (see FIG. 2). After deaerating the aqueous solution that had undergone about 30-minute ozone treatment to remove dissolved ozone gas by helium purging, oxidizing property of the aqueous solution was determined by the iodine titration method. As a result, the aqueous solution had oxidizing property, and frothing, which is a characteristic of surfactants, was observed. The results confirmed that ozonized Tween 80 had been produced. Further, a temporal change in the oxidizing property of the aqueous solution was determined by the iodine titration method at 25° C. for 20 days. As a result, the percentage of oxidizing property measured after 20 days to that measured just after preparation was 109%.
The solution A was diluted to a 1% aqueous solution, and a temporal change in the oxidizing property of the aqueous solution was determined by the iodine titration method at 25° C. for 700 days. As a result, the percentage of oxidizing property measured after 700 days to that measured just after preparation was 101%.

[2] = system: mold (filamentous fungus); experiment: Evaluation of antiseptic activity in thickener solution; assay type: cell-based; details: 0.1% in 3.5% Carbopol ETD2020 aqueous solution, 25° C.
Experimental: In order to check the antiseptic performance of ozonized surfactants, the ozonized surfactants were added to a substance susceptible to mold. […] Into a 100 mL-glass bottle, 50 mL of the sample was charged. The bottles were kept at 25° C. in a thermostatic air chamber, and temporal changes were visually observed. […] The mold-like material was removed and examined under a 700-power microscope. As a result, spores were detected and the material was identified as a filamentous fungus. The above results confirmed the antiseptic activity of the ozonized surfactants.

Escherichia coli [3] = experiment: Sterilizing activity value test; assay type: cell-based; details: 0.5% aqueous solution, contact time 5 min, 25 ± 1° C., vs 0.05 (w/v %) Polysorbate 80 control
Experimental: (§1) In order to check the effect of the ozonized surfactant as a sterilizing detergent, a sterilizing activity test was performed. A 0.5% aqueous solution of the solution obtained in Example 4 was tested based on the sterilizing activity test of home care synthetic detergents and soaps, which is a method set by Detergent and Soap Fair Trade Council. […] Each of the control solution and the test sample solutions described in the table below is applied to a test specimen to which bacteria have been inoculated beforehand. After letting the specimens stand for a certain period of time, the viable bacteria count on each specimen is measured. The sterilizing activity value is obtained by subtracting the common logarithm value of the viable bacteria count on the specimen treated with a test sample from the common logarithm value of the viable bacteria count on the specimen treated with the control. […] In a predetermined period of time, an inactivator is applied to inactivate the property suppressing the growth of bacteria and the property killing bacteria, and subsequently the viable bacteria count on the specimen is determined. […]

Staphylococcus aureus [4] = experiment: Sterilizing activity value test; assay type: cell-based; details: 0.5% aqueous solution, contact time 5 min, 25 ± 1° C., vs 0.05 (w/v %) Polysorbate 80 control
Experimental: as §1

slug = experiment: Insecticidal activity: test of killing slugs; assay type: in vivo; details: 1% aqueous solution, 2 pushes: 1.88 mL sprayed from 15 cm above
Experimental: In order to check the insect control performance of the ozonized surfactant, a test of killing slugs was performed. A slug was put into a glass petri dish. Onto the slug, a 1% aqueous solution of the ozonized surfactant obtained in Example 4, 5, 7, 9 or 10 (2 pushes: 1.88 mL) was sprayed from 15 cm above. After that, the time elapsed until the slug died (the motion stopped) was measured. As a control, the same evaluation was simultaneously performed with a commercial insecticide (product name: NEW Namekuji (slug) Spray, made by Sumitomo Chemical Garden Products Inc., Lot No. 11.05 0806JE) containing a natural substituted phenol, a copper compound and an alcohol, as active ingredients.

Escherichia coli [5] = experiment: Bactericidal activity test with variation of the period of action; assay type: cell-based
Experimental: (§2) In order to check the bactericidal activity of the ozonized surfactant, a bactericidal activity test was performed with variation of the period of action.
(§3) Developed colonies were scraped off and a bacterial solution of about 10^8 CFU/mL was prepared.
(§4) Into 50 mL centrifuging tubes, 10 mL each of 0.5% and 0.05% aqueous solutions of the ozonized surfactant obtained in Example 4 were separately poured. To each solution, 0.1 mL of sample bacterial solution was inoculated and mixed for a predetermined period of action at room temperature. To 10 mL of SCDLP bouillon medium (EIKEN CHEMICAL) of which the effectiveness as an inactivator had been confirmed beforehand, 0.1 mL of the resulting solution after a predetermined period of action was added for inactivation of bactericidal components. Then the bacteria count was measured. As a control test, the same operation was performed with the use of an unozonized surfactant or sterile purified water. A 10-fold serial dilution of each sample solution after inactivation was prepared. Each 1 mL of the undiluted and diluted sample solutions were separately mixed with about 20 mL of agar medium, and then cultured. After culturing, the number of colony forming units per 1 mL of each sample solution was counted.

Pseudomonas aeruginosa = experiment: as above; assay type: cell-based
Experimental: as §2, §3, §4

Staphylococcus aureus [6] = experiment: as above; assay type: cell-based
Experimental: as §2, §3, §4

[7] = Conc. 0.05%, period of action 10 min
[8] = Conc. 0.05%, period of action 30 min
[9] = Conc. 0.5%, period of action 5 min
[10] = Conc. 0.5%, period of action 10 min
[11] = Conc. 0.5%, period of action 30 min

## Ozonized POE (10 EO) oleyl ether [Example 4]
[1]
  percentage of oxidizing property measured after 700 days to that measured just after preparation: 101%
[2]
  Antiseptic activity of thickener soln. (visually observed), 1 month after: Good
  Antiseptic activity of thickener soln. (visually observed), 1 week after: Good
Escherichia coli [3]
  sterilizing activity value: 4.6
Staphylococcus aureus [4]
  sterilizing activity value: 2.8
slug
  Death time of slug: 564 s
Escherichia coli [5]; Conc. 0.05%, period of action 5 min, 0 min 3.8 × 10^6
  bacteria count: 4.8 × 10^6 CFU/mL
Escherichia coli [5]; [7]
  bacteria count: <1 × 10^2 CFU/mL
Escherichia coli [5]; [8]
  bacteria count: <1 × 10^2 CFU/mL
Escherichia coli [5]; [9]
  bacteria count: <1 × 10^2 CFU/mL
Escherichia coli [5]; [10]
  bacteria count: <1 × 10^2 CFU/mL
Escherichia coli [5]; [11]
  bacteria count: <1 × 10^2 CFU/mL
Pseudomonas aeruginosa; Conc. 0.05%, period of action 5 min, 0 min 4.5 × 10^6
  bacteria count: 1.5 × 10^2 CFU/mL
Pseudomonas aeruginosa; [7]
  bacteria count: <1 × 10^2 CFU/mL
Pseudomonas aeruginosa; [8]
  bacteria count: <1 × 10^2 CFU/mL
Pseudomonas aeruginosa; [9]
  bacteria count: <1 × 10^2 CFU/mL
Pseudomonas aeruginosa; [10]
  bacteria count: <1 × 10^2 CFU/mL
Pseudomonas aeruginosa; [11]
  bacteria count: <1 × 10^2 CFU/mL
Staphylococcus aureus [6]; Conc. 0.05%, period of action 5 min, 0 min 8.2 × 10^6
  bacteria count: <1 × 10^2 CFU/mL
Staphylococcus aureus [6]; [7]
  bacteria count: 1 × 10^2 CFU/mL
Staphylococcus aureus [6]; [8]
  bacteria count: <1 × 10^2 CFU/mL
Staphylococcus aureus [6]; [9]
  bacteria count: <1 × 10^2 CFU/mL
Staphylococcus aureus [6]; [10]
  bacteria count: <1 × 10^2 CFU/mL
Staphylococcus aureus [6]; [11]
  bacteria count: <1 × 10^2 CFU/mL
